Eight compounds from PMC12957839, “Antiviral activity and mechanism of purine morpholine nucleoside analogues incorporating a sulfonamide fragment” (Journal of Advanced Research, 2025) can be followed below.

≈ marks a conversion by molar mass, not a printed value. Like-named read-outs stand apart in the source and are kept apart here.

The subject of assay [1] is PMMoV. In words: Antiviral activity assay against PMMoV, inactivating activity. Type of assay: in vivo, Pepper mild mottle virus (PMMoV). To be noted: for pest or weed control at 500 µg/mL / EC50: Pepper mild mottle virus; for pest or weed control at 500 µg/mL: read-out: Inactivating activity; for EC50: read-out: EC50 of inactivating activity. Here is the method:
(§1) Virions were isolated and extracted from leaves of N. benthamiana infected with PMMoV referring to the method recorded in the literature. And the inhibiting activities of C1–C38 against PMMoV were assessed with reference to the literature as well [26, 34].

Assay [2] deals with PMMoV. In words: Antiviral activity assay against PMMoV, protective activity. The conditions noted are these: for EC50: Pepper mild mottle virus, read-out: EC50 of protective activity. Also noted: Protective activity: concentration or dose not given beside the values. Type of assay: in vivo, Pepper mild mottle virus (PMMoV). Here is the method: as §1
The subject of assay [3] is PMMoV. The assay can be described thus: Antiviral activity assay against PMMoV, curative activity. To be noted: for EC50: Pepper mild mottle virus, read-out: EC50 of curative activity. It is filed as in vivo, Pepper mild mottle virus (PMMoV). Also noted: Curative activity: concentration or dose not given beside the values. Here is the method:
as §1

The target in assay [4] is T1, PMMoV CP (Pepper mild mottle virus, UniProt P69509). In words: Microscale thermophoresis (MST) binding affinity with PMMoV CP. Here is the method: The binding affinities of compounds with PMMoV CP were analyzed by MST based on the procedures delineated in the literature.
(MST reads how a fluorescent partner responds to local heating, with and without ligand.)

The target in assay [5] is T1, PMMoV CP. The assay can be described thus: ABPP probe capture of PMMoV CP (Western blot), concentration dependence and competitive inhibition. Type of assay: binding. The conditions noted are these: for capture of the 17 kDa protein from PMMoV: Western blot, identical concentration, Fig. S132; for capture of PMMoV CP: same concentration of 100 µM; for capture of PMMoV CP / labeling of PMMoV CP by probe: Fig. 1B. The source says:
ABPP technology utilized its unique chemical probe strategy to selectively capture target proteins and was regarded as a well-established approach for discovering target proteins.
On the technique in general: A western blot detects proteins with antibodies after separation by electrophoresis.

Assay [6] relates to PMMoV CP and I3QHX5. In words: BiFC interaction of PMMoV CP and PMMoV CP^Y13A with I3QHX5 before and after application of C1. Type of assay: cell-based, N. benthamiana. The conditions noted are these: addition of C1, 30, 36 and 42 hpi, Fig. 6A. Here is the method: Designed primers to construct vectors of LCA and BiFC via homologous recombination. Extracted plasmids and waited for sequencing confirmation before transforming them into GV3101 (pU19). A. tumefaciens transient transformation solution (200 μM acetosyringone, 10 mM MgCl2, and 10 mM MES, pH = 5.6) was prepared to resuspend the organisms with a final OD600 of 1.0, then mixed them with equal OD600 and volume before being infiltrated into N. benthamiana of the same growth stage. […]

For assay [7], the target named is PMMoV CP (Octet, in vitro) (pepper mild mottle virus). In words: BLI; Octet, in vitro; which partner was immobilised is not stated. A general note: In BLI a coated tip is dipped into the sample, and binding shifts an interference pattern.
Setting [8] is: against PMMoV, at 500 µg/mL, average of three replicates, ± standard deviation.
[9] abbreviates: against PMMoV, average of three replicates, ± standard deviation.

As usually defined, the EC50 is the concentration at which the effect is half-maximal. A word on the Kd: it is the constant that tells how readily two partners part at equilibrium. For `CC(=O)OCC1OC(n2cnc3c(N4CCOCC4)nc(Cl)nc32)C(NS(=O)(=O)c2ccc(C)cc2)C(OC(C)=O)C1OC(C)=O` (stereo not shown) [C25], the pest or weed control at 500 µg/mL in assay [1] (setting [8]) came to 46.9 ± 1.8%. Moreover, the EC50 in assay [1] (setting [9]) was 573 ± 10.9 µg/mL (≈ 841 µM). In addition, in assay [2] (setting [9]), the EC50 amounted to 345 ± 11.3 µg/mL (≈ 507 µM) and the Protective activity is recorded as 52.3 ± 1.1%. Moreover, in assay [3] (setting [9]), the EC50 was determined as 167 ± 5.2 µg/mL (≈ 245 µM) and the Curative activity came out at 59.0 ± 3.5%. Also, the Kd in assay [4] worked out at 264000 ± 25100 nM.
Regarding `CC(=O)OCC1OC(n2cnc3c(N4CCOCC4)ncnc32)C(NS(=O)(=O)c2ccc([N+](=O)[O-])cc2)C(OC(C)=O)C1OC(C)=O` (stereo not shown) [C1], in assay [1] (setting [8]), the pest or weed control at 500 µg/mL is 76.4% and the Inactivating activity amounted to 76.4 ± 2.6%. The half-maximal effective concentration (EC50) in assay [1] (setting [9]) was 37 ± 4.4 µg/mL (≈ 54.6 µM). In addition, in assay [2] (setting [9]), the half-maximal effective concentration (EC50) stood at 86.9 ± 8.8 µg/mL (≈ 128 µM) and the Protective activity was determined as 64.3 ± 2.8%. For the same compound, in assay [3] (setting [9]), the EC50 was determined as 17 ± 3.9 µg/mL (≈ 25.1 µM) and the Curative activity amounted to 73.7 ± 5.2%. In assay [5], the “capture of the 17 kDa protein from PMMoV” value is reported as “neither C1 nor DMSO exhibited such a capacity” and the “capture of PMMoV CP” value is “could not”. Further, the “competitive inhibition of C2 labeling of PMMoV CP” value in assay [5] (increasing concentrations of C1, Fig. 1C) is listed as “competitively inhibited the interaction of C2 with PMMoV CP”. The compound also showed a Kd in assay [4] of 1500 nM. Also, the “effect on interaction of PMMoV CP and PMMoV CP^Y13A with I3QHX5” value in assay [6] is listed as “affected the interaction”.
Regarding `C#CCN1CCN(c2ncnc3c2ncn3C2OC(COC(C)=O)C(OC(C)=O)C(OC(C)=O)C2NS(=O)(=O)c2ccc([N+](=O)[O-])cc2)CC1` (stereo not shown) [C2], the pest or weed control at 500 µg/mL in assay [1] (setting [8]) came to 67.4 ± 3.9%. For the same compound, the EC50 in assay [1] (setting [9]) is 40.7 ± 2.3 µg/mL (≈ 56.9 µM). For the same compound, in assay [2] (setting [9]), the EC50 was determined as 64.5 ± 4.5 µg/mL (≈ 90.2 µM) and the Protective activity is 65.9 ± 3.0%. Moreover, in assay [3] (setting [9]), the concentration for a half-maximal effect (EC50) is 66.6 ± 4.5 µg/mL (≈ 93.2 µM) and the Curative activity came to 67.3 ± 4.3%. In assay [5], the “capture of the 17 kDa protein from PMMoV” value is listed as “capable of capturing the protein with a molecular weight of 17 kDa” and the “capture of PMMoV CP” value is reported as “could capture PMMoV CP”. Further, the “labeling of PMMoV CP by probe” value in assay [5] (concentrations of 10–50 µM) was “successfully labeled protein”. Besides, the “labeling of PMMoV CP by probe” value in assay [5] (concentrations reduced to 5–1 µM) is listed as “failed to do so”.
For “I3QHX5 (Octet, in vitro) (from UniProt I3QHX5 1-485) (natural protein)”, the Kd in assay [7] turned out to be 13 nM.
As to `CNCC(=O)N[C@@H](CO)C(=O)N[C@H]1[C@H](O)[C@@H](O)[C@H](n2ccc(N)nc2=O)O[C@@H]1C(N)=O` [Ningnanmycin, reference compound], the EC50 in assay [1] was 67.3 ± 3.5 µg/mL (≈ 152 µM); in assay [2] it was 285 ± 5.3 µg/mL (≈ 644 µM); in assay [3], 258 ± 7.6 µg/mL (≈ 581 µM). Further, in assay [1], the pest or weed control at 500 µg/mL stood at 71.2 ± 6.1%. This compound also returned a Protective activity in assay [2] (setting [9]) of 60.8 ± 3.1%. Moreover, the Curative activity in assay [3] (setting [9]) is on record as 54.5 ± 3.3%.
Consider `CC(=O)OCC1OC(n2cnc3c(N4CCOCC4)nc(N)nc32)C(NS(=O)(=O)c2cccc(Cl)c2)C(OC(C)=O)C1OC(C)=O` (stereo not shown) [C11], for which, in assay [1] (setting [8]), the pest or weed control at 500 µg/mL is 51.8 ± 2.1%. Moreover, in assay [1] (setting [9]), the concentration giving a half-maximal response (EC50) amounted to 497.1 ± 3 µg/mL (≈ 729 µM). Further, in assay [2] (setting [9]), the EC50 came out at 225 ± 11.9 µg/mL (≈ 329 µM) and the Protective activity is reported as 58.8 ± 3.1%. For the same compound, in assay [3] (setting [9]), the EC50 came to 372 ± 18.4 µg/mL (≈ 545 µM) and the Curative activity was determined as 51.8 ± 1.0%.
Consider `CC(=O)OCC1OC(n2cnc3c(N4CCOCC4)nc(Cl)nc32)C(NS(=O)(=O)c2ccc(F)cc2)C(OC(C)=O)C1OC(C)=O` (stereo not shown) [C32], for which, in assay [1] (setting [8]), the pest or weed control at 500 µg/mL was found to be 67.9 ± 5.1%. Also, the EC50 in assay [1] (setting [9]) stood at 38 ± 4.4 µg/mL (≈ 55.5 µM). Further, in assay [2] (setting [9]), the EC50 came out at 28.7 ± 4.4 µg/mL (≈ 41.9 µM) and the Protective activity worked out at 68.9 ± 2.0%. In assay [3] (setting [9]), the EC50 is 23.8 ± 5.5 µg/mL (≈ 34.7 µM) and the Curative activity amounted to 68.0 ± 2.7%.
For the compound `CC(=O)OCC1OC(n2cnc3c(N4CCOCC4)nc(N)nc32)C(NS(=O)(=O)c2c(C)cc(C)cc2C)C(OC(C)=O)C1OC(C)=O` (stereo not shown) [C22], in assay [1] (setting [8]), the pest or weed control at 500 µg/mL is 61.3% and the Inactivating activity turned out to be 61.3 ± 4.5%. Further, in assay [1] (setting [9]), the EC50 is 13.7 ± 1.6 µg/mL (≈ 19.9 µM). Moreover, in assay [2] (setting [9]), the EC50 stood at 38 ± 3.5 µg/mL (≈ 55.1 µM) and the Protective activity turned out to be 61.2 ± 1.6%. Further, in assay [3] (setting [9]), the EC50 amounted to 26.2 ± 1.3 µg/mL (≈ 38 µM) and the Curative activity came to 67.6 ± 1.9%.
